The record followed here is paper PMC13249469, “High-throughput ligand diversification to discover chemical inducers of proximity” (Nature Chemical Biology, 2026).

In this assay the target is T1, CRBN (Cereblon) (Homo sapiens, UniProt Q96SW2).
T1 construct: CRBN–DDB1; with DDB1
As to the kind of experiment: competitive FP displacement of BODIPY-labelled IMiD probe, without ENL YEATS. Format: binding.

In turn, `O=C(COc1cccc2c1C(=O)N(C1CCC(=O)NC1=O)C2=O)NCCOCCOCCNS(=O)(=O)Nc1cccc(-c2cn3cc(C(=O)NC4CCC4)ccc3n2)c1` (stereo not shown) [SR-1114] showed an IC50 of 0.155 µM. That is a sub-micromolar value.
